Among the data in US10709709B2, “Substituted carbonucleoside derivatives useful as anticancer agents” (Pfizer Inc., priority 2016, dated 2020) are IC50 values, retold here.

This assay deals with PRMT5/MEP50 protein complex (Homo sapiens (Human), UniProt O14744). The assay can be described thus: PRMT5 biochemical assay (3H-SAM methylation of H4(1-21) peptide, filter plate scintillation). To be noted: 10 nM PRMT5/MEP50 complex, 200 nM H4(1-21) peptide, 1 uM SAM, 25 minute incubation at room temperature. As to the method:
Biochemical Assay Methods
Compounds were solubilized in DMSO and serially diluted, using 3-fold dilutions, into 100% DMSO at a concentration 50-fold greater than the desired assay concentration. Following dilution, 1 ul was added to an empty 96-well microtiter plate. PRMT5/MEP50 protein complex was combined with H4(1-21) peptide ([…]) in PRMT5 assay buffer (50 mM Tris pH 8.5, 50 mM NaCl, 5 mM MgCl2, 1 mM EDTA, 1 mM TCEP) and 44 ul was added to the microtiter plate containing compound. S-Adenosyl-L-methionine (SAM) was prepared by combining ^3H labelled SAM with unlabelled SAM in PRMT5 assay buffer such that the final SAM concentration was 10 uM and the specific activity was 0.2 uCi/ul. The reaction was initiated by adding 5 ul of SAM stock to the microtiter plate. The final reaction conditions were 10 nM PRMT5/MEP50 complex, 200 nM peptide and 1 uM SAM. Following a 25 minute incubation at room temperature, the reaction was stopped with the addition of 100 uL of 20% TCA. The 3H-peptide product was captured using a 96-well filter plate (MSIPN4B, Millipore) and washed 5 times with PBS buffer. Scintillation fluid (100 ul) was added to the dried filter plate and counted in a liquid scintillation counter. IC50 values were determined by fitting the data to the standard 4-parameter dose response equation using Pfizer proprietary software.
Results for the biochemical assay of examples are summarized in Table 1, shown as IC50 values in μM.

pIC50: −log10 of the molar value. A value given as a limit tells only on which side of the number the result lay.

Sequence of PRMT5/MEP50 protein complex (O14744 other isoform, or with tags, fused parts or gaps): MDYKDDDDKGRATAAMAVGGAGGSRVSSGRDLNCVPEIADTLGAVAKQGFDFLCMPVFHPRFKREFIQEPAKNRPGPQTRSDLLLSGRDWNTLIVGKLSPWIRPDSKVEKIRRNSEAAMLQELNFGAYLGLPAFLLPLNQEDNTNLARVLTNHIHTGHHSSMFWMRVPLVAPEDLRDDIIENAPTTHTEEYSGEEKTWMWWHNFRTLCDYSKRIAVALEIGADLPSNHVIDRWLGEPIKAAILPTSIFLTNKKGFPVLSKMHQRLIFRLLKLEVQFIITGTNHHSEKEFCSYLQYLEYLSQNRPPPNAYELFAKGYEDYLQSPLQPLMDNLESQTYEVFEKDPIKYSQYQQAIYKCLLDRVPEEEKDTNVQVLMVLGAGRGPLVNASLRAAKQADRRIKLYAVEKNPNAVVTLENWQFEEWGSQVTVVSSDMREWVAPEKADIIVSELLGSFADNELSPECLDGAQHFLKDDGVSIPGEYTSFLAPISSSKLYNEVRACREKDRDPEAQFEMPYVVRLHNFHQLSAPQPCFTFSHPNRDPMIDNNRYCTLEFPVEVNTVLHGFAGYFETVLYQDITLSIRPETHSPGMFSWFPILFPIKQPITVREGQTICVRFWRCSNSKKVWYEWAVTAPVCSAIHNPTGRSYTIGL
Sequence of PRMT5/MEP50 protein complex (Q9BQA1 whole entry partner): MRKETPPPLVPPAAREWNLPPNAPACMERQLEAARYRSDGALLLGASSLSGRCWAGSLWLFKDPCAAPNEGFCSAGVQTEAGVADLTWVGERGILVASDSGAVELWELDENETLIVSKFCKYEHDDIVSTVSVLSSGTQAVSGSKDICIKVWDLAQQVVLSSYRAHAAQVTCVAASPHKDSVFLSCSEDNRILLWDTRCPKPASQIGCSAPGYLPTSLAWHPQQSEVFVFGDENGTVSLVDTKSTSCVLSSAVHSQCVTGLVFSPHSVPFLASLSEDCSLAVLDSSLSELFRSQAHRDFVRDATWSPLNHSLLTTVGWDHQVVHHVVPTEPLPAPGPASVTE

As to `Cc1ncnc2c1ccn2[C@@H]1C[C@H](Oc2cccc3c2CC(N)CO3)[C@@H](O)[C@H]1O` (single isomer, unassigned) [Example 189], the pIC50 was 6.22. The same measure for `Cc1cn([C@@H]2C[C@H](Oc3cc(F)c(F)c4c3CNCC4)[C@@H](O)[C@H]2O)c2ncnc(N)c12` [Example 179, (1S,2S,3R,5S)-3-(4-amino-5-methyl-7H-pyrrolo[2,3-d]pyrimidin-7-yl)-5-((5,6-difluoro-1,2,3,4-tetrahydroisoquinolin-8-yl)oxy)cyclopentane-1,2-diol]: 9.00; for `Cc1nccc(O[C@@H]2C[C@H](Oc3cccc4c3CNCC4)[C@@H](O)[C@H]2O)n1` [Example 158, (1S,2R,3R,5S)-3-((2-methylpyrimidin-4-yl)oxy)-5-((1,2,3,4-tetrahydroisoquinolin-8-yl)oxy)cyclopentane-1,2-diol]: less than 3.70; for `Cc1ncc(O[C@H]2C[C@@H](n3ccc4c(C)ncnc43)[C@H](O)[C@@H]2O)c2c1CCNC2` [Example 96, (1S,2S,3S,5R)-3-((1-methyl-5,6,7,8-tetrahydro-2,6-naphthyridin-4-yl)oxy)-5-(4-methyl-7H-pyrrolo[2,3-d]pyrimidin-7-yl)cyclopentane-1,2-diol]: 7.72. `Cc1ncnc2c1ccn2[C@@H]1C[C@H](Oc2cccc3ccncc23)[C@@H](O)[C@H]1O` [Example 172, (1S,2S,3S,5R)-3-(isoquinolin-8-yloxy)-5-(4-methyl-7H-pyrrolo[2,3-d]pyrimidin-7-yl)cyclopentane-1,2-diol]: the pIC50 was 5.89.

`Cc1ncnc2c1ccn2[C@@H]1C[C@H](Oc2c(F)cccc2F)[C@@H](O)[C@H]1O` [Example 74, (1S,2S,3S,5R)-3-(2,6-difluorophenoxy)-5-(4-methyl-7H-pyrrolo[2,3-d]pyrimidin-7-yl)cyclopentane-1,2-diol] had a pIC50 of 4.20. The same measure for `Cc1nc(N)nc2c1ccn2[C@@H]1C[C@H]([C@@H](O)c2ccc(F)c(F)c2)[C@@H](O)[C@H]1O` [Example 49, (1R,2S,3R,5R)-3-(2-amino-4-methyl-7H-pyrrolo[2,3-d]pyrimidin-7-yl)-5-[(R)-(3,4-difluorophenyl)(hydroxy)methyl]cyclopentane-1,2-diol]: 6.98. The same measure for `Cc1ncnc2c1ccn2[C@H]1C[C@@H](Oc2ccccc2CN)[C@H](O)[C@@H]1O` [Example 63, (1R,2R,3R,5S)-3-(2-(aminomethyl)phenoxy)-5-(4-methyl-7H-pyrrolo[2,3-d]pyrimidin-7-yl)cyclopentane-1,2-diol]: 5.98. For `Cc1ncnc2c1ccn2[C@H]1C[C@@H](Oc2ccccc2C#N)[C@H](O)[C@@H]1O` [Example 65, 2-(((1R,2R,3R,4S)-2,3-dihydroxy-4-(4-methyl-7H-pyrrolo[2,3-d]pyrimidin-7-yl)cyclopentyl)oxy)benzonitrile], the pIC50 is less than 3.70. `Cc1ncnc2c1ccn2[C@@H]1C[C@H]([C@H](CN)c2ccc(F)cc2)[C@@H](O)[C@H]1O` [Example 51, (1S,2R,3R,5R)-3-[(1S)-2-amino-1-(4-fluorophenyl)ethyl]-5-(4-methyl-7H-pyrrolo[2,3-d]pyrimidin-7-yl)cyclopentane-1,2-diol] showed a pIC50 of 6.17. The same measure for `N#Cc1cccc2c(N[C@@H]3C[C@H](C(O)c4ccc(F)c(F)c4)[C@@H](O)[C@H]3O)ncnc12` (single isomer, unassigned) [Example 30, 4-({(1R;2S;3R;4R)-4-[(3;4-difluorophenyl)(hydroxy)methyl]-2;3-dihydroxycyclopentyl}amino)quinazoline-8-carbonitrile]: less than 3.70; for `Cc1ncnc2c1ccn2[C@@H]1C[C@H](Oc2ccccc2CN)[C@@H](O)[C@H]1O` [Example 62, (1S,2S,3S,5R)-3-(2-(aminomethyl)phenoxy)-5-(4-methyl-7H-pyrrolo[2,3-d]pyrimidin-7-yl)cyclopentane-1,2-diol]: 7.60; for `Cc1ncnc2c1ccn2[C@@H]1C[C@H](Oc2ccc(Cl)cc2C(O)CN)[C@@H](O)[C@H]1O` (stereo partly drawn) [Example 149, (1S,2S,3S,5R)-3-(2-(2-amino-1-hydroxyethyl)-4-chlorophenoxy)-5-(4-methyl-7H-pyrrolo[2,3-d]pyrimidin-7-yl)cyclopentane-1,2-diol]: 7.16.

In turn, `CN(c1cc(N)ncn1)[C@@H]1C[C@H]([C@H](O)c2ccc(F)c(F)c2)[C@@H](O)[C@H]1O` [Example 43, (1R,2S,3R,5R)-3-[(6-aminopyrimidin-4-yl)(methyl)amino]-5-[(S)-(3,4-difluorophenyl) (hydroxy)methyl]cyclopentane-1,2-diol] showed a pIC50 of 6.06. The same measure for `Nc1ncnc2c1c(F)cn2[C@@H]1C[C@H]([C@@H](O)c2ccc(F)cc2)[C@@H](O)[C@H]1O` [Example 26, (1R,2S,3R,5R)-3-(4-amino-5-fluoro-7H-pyrrolo[2,3-d]pyrimidin-7-yl)-5-[(R)-(4-fluorophenyl)(hydroxy)methyl]cyclopentane-1,2-diol]: 6.15.

With `Cc1ncnc2c1ccn2[C@@H]1C[C@H](Cc2ccc(F)cc2)[C@@H](O)[C@H]1O` [Example 58, (1S,2R,3S,5R)-3-(4-fluorobenzyl)-5-(4-methyl-7H-pyrrolo[2,3-d]pyrimidin-7-yl)cyclopentane-1,2-diol], the pIC50 is 6.54. The same measure for `Cc1ncnc2c1ccn2[C@@H]1C[C@H]([C@@](C)(O)c2ccc(F)cc2)[C@@H](O)[C@H]1O` [Example 20, (1S,2R,3S,5R)-3-[(1R)-1-(4-fluorophenyl)-1-hydroxyethyl]-5-(4-methyl-7H-pyrrolo[2,3-d]pyrimidin-7-yl)cyclopentane-1,2-diol]: 4.77; for `Cc1ncnc2c1ccn2[C@@H]1C[C@H]([C@@H](O)c2cc(F)c(F)c(F)c2)[C@@H](O)[C@H]1O` [Example 14, (1S,2R,3R,5R)-3-[(R)-hydroxy(3,4,5-trifluorophenyl)methyl]-5-(4-methyl-7H-pyrrolo[2,3-d]pyrimidin-7-yl)cyclopentane-1,2-diol]: 6.14; for `Cc1ncnc2c1ccn2[C@@H]1C[C@H](C2(O)CC2)[C@@H](O)[C@H]1O` [Example 17, (1S,2R,3S,5R)-3-(1-hydroxycyclopropyl)-5-(4-methyl-7H-pyrrolo[2,3-d]pyrimidin-7-yl)cyclopentane-1,2-diol]: 5.56.

In turn, `Cc1ncnc2c1ccn2[C@@H]1C[C@H](Oc2ccc(F)cc2)[C@@H](O)[C@H]1O` [Example 73, (1S,2S,3S,5R)-3-(4-fluorophenoxy)-5-(4-methyl-7H-pyrrolo[2,3-d]pyrimidin-7-yl)cyclopentane-1,2-diol] showed a pIC50 of 5.16. The same measure for `CN(c1ncnc(N)n1)[C@@H]1C[C@H]([C@H](O)c2ccc(F)c(F)c2)[C@@H](O)[C@H]1O` [Example 37, (1R,2S,3R,5R)-3-[(4-amino-1,3,5-triazin-2-yl)(methyl)amino]-5-[(S)-(3,4-difluorophenyl) (hydroxy)methyl]cyclopentane-1,2-diol]: 6.58; for `Cc1ncnc2c1ccn2[C@@H]1C[C@H](Oc2nc(OC(C)C)c(F)c3c2CNCC3)[C@@H](O)[C@H]1O` [Example 193, (1S,2S,3S,5R)-3-((4-fluoro-3-isopropoxy-5,6,7,8-tetrahydro-2,7-naphthyridin-1-yl)oxy)-5-(4-methyl-7H-pyrrolo[2,3-d]pyrimidin-7-yl)cyclopentane-1,2-diol]: 6.74; for `Cc1ncnc2c1ccn2[C@@H]1C[C@H](Oc2cc(-c3cnco3)cc3c2CNCC3)[C@@H](O)[C@H]1O` [Example 170, (1S,2S,3R,5S)-3-(4-methyl-7H-pyrrolo[2,3-d]pyrimidin-7-yl)-5-((6-(oxazol-5-yl)-1,2,3,4-tetrahydroisoquinolin-8-yl)oxy)cyclopentane-1,2-diol]: 9.00. The same measure for `Cc1ncnc2c1ccn2[C@@H]1C[C@H](Oc2ccc(Cl)cc2OCCN)[C@@H](O)[C@H]1O` [Example 153, (1S,2S,3S,5R)-3-(2-(2-aminoethoxy)-4-chlorophenoxy)-5-(4-methyl-7H-pyrrolo[2,3-d]pyrimidin-7-yl)cyclopentane-1,2-diol]: 8.30; for `Cc1cc(N(C)[C@@H]2C[C@H]([C@H](O)c3ccc(F)c(F)c3)[C@@H](O)[C@H]2O)ncn1` [Example 33, (1S,2R,3R,5R)-3-[(S)-(3,4-difluorophenyl)(hydroxy)methyl]-5-[methyl(6-methylpyrimidin-4-yl)amino] cyclopentane-1,2-diol]: 5.45.

`Cc1cc2c(c(O[C@H]3C[C@@H](n4cc(F)c5cnc(C)nc54)[C@H](O)[C@@H]3O)c1)CNCC2` [Example 127, (1S,2S,3R,5S)-3-(5-fluoro-2-methyl-7H-pyrrolo[2,3-d]pyrimidin-7-yl)-5-((6-methyl-1,2,3,4-tetrahydroisoquinolin-8-yl)oxy)cyclopentane-1,2-diol] showed a pIC50 of 8.05. The same measure for `Cc1ncnc2c1ccn2[C@@H]1C[C@H](Oc2ccc(F)cc2C#N)[C@@H](O)[C@H]1O` [Example 68, 2-(((1S,2S,3S,4R)-2,3-dihydroxy-4-(4-methyl-7H-pyrrolo[2,3-d]pyrimidin-7-yl)cyclopentyl)oxy)-5-fluorobenzonitrile]: less than 3.70.
